From ChEMBL document CHEMBL1147624, “Inhibitors of hepatitis C virus NS3.4A protease 2. Warhead SAR and optimization” (Bioorg Med Chem Lett, 2004)
Where a SMILES comes first, the peptide text is derived from it. [ ]: non-standard residue; d: D form. The star is where a group is joined. Pyrazinecarbonyl = O=C(c1cnccn1)*; Hyp = O=C(O)[C@@H]1C[C@@H](O)CN1; Abu = CC[C@H](N)C(=O)O; Bn = c1ccc(C*)cc1

How the values were obtained:
NS3 = NS3 (Hepatitis C virus, UniProt A3EZJ3); assay: Binding inhibition of hepatitis C virus NS3.4A protease 2 using p-nitroaniline assay (pNA); parameters: species or system Hepacivirus hominis
[1] = molecular target: T1, Hepatitis C virus serine protease, NS3/NS4A (Hepatitis C virus, UniProt D2K2A8+A3EZI9); assay: Binding inhibition of hepatitis C virus NS3.4A protease 2 using a reverse phase HPLC based assay; assay type: protein-complex assay, Hepacivirus hominis
[2] = molecular target: T1, Hepatitis C virus serine protease, NS3/NS4A; assay: Binding inhibition of hepatitis C virus NS3.4A protease 2 using p-nitroaniline assay (pNA); <0.2 (0.18); assay type: protein-complex assay, Hepacivirus hominis
Huh-7 [3] = assay: Reduction of HCV RNA in 48 hr compound treated Huh 7 cells was determined by quantitative RT-PCR-based […] assay; assay type: functional; details: Homo sapiens, Huh-7, 48 h
[4] = molecular target: T1, Hepatitis C virus serine protease, NS3/NS4A; assay: Binding inhibition of hepatitis C virus NS3.4A protease 2 using p-nitroaniline assay (pNA); <0.2 (0.10); assay type: protein-complex assay, Hepacivirus hominis
Huh-7 [5] = assay: Cytotoxicity of compound was determined by MTS-based cell viability assay in Huh 7 cells; assay type: functional; details: Homo sapiens
[6] = molecular target: T1, Hepatitis C virus serine protease, NS3/NS4A; assay: Binding inhibition of hepatitis C virus NS3.4A protease 2 using p-nitroaniline assay (pNA); <0.2 (0.15); assay type: protein-complex assay, Hepacivirus hominis
[7] = molecular target: T1, Hepatitis C virus serine protease, NS3/NS4A; assay: Binding inhibition of hepatitis C virus NS3.4A protease 2 using a reverse phase HPLC based assay; <0.2 (0.15); assay type: protein-complex assay, Hepacivirus hominis
[8] = molecular target: T1, Hepatitis C virus serine protease, NS3/NS4A; assay: Binding inhibition of hepatitis C virus NS3.4A protease 2 was determined; assay type: protein-complex assay, Hepacivirus hominis
[9] = molecular target: T1, Hepatitis C virus serine protease, NS3/NS4A; assay: Binding inhibition of hepatitis C virus NS3.4A protease 2 using p-nitroaniline assay (pNA); <0.2 (0.03); assay type: protein-complex assay, Hepacivirus hominis

T1 sequence (D2K2A8 whole entry): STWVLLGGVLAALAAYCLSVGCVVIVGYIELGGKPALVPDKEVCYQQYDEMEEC
T1 sequence (A3EZI9 whole entry): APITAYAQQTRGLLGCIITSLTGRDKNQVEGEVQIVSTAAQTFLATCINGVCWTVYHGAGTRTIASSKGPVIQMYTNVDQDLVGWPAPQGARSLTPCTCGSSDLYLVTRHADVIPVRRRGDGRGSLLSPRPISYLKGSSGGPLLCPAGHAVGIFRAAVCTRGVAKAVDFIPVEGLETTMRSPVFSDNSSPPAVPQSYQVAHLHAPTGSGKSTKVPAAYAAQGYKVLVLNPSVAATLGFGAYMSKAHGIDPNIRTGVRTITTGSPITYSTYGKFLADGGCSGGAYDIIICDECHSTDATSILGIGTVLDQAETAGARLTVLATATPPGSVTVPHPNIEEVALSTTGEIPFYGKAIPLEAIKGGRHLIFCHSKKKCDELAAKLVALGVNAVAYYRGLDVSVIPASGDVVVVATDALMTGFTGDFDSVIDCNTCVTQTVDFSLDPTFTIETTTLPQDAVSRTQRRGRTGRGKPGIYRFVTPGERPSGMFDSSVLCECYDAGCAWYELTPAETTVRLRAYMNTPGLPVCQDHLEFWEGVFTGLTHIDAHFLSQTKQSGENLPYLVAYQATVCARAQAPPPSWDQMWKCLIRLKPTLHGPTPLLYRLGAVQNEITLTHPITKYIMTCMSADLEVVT
NS3, sequence (A3EZJ3 whole entry): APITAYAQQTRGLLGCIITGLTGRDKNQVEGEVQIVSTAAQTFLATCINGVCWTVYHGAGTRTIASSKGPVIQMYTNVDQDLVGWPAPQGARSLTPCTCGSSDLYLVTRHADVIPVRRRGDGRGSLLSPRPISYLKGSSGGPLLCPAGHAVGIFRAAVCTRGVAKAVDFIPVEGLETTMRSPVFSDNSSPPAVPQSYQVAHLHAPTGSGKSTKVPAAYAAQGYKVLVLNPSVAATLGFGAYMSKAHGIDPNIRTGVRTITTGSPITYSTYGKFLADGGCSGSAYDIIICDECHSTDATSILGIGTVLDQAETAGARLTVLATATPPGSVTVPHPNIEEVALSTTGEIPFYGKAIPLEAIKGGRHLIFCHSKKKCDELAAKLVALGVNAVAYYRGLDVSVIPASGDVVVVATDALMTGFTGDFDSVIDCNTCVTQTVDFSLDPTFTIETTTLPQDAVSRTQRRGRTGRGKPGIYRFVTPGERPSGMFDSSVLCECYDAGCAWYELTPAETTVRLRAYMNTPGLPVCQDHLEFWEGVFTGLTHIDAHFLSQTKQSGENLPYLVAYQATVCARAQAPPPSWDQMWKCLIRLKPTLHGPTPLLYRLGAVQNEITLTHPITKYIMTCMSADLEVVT

SMILES	Ki (NS3) [µM]	IC50 (Huh-7 [3]) [µM]	CC50 (Huh-7 [5]) [µM]	also measured
CCC(NC(=O)[C@@H]1C[C@@H](OCc2ccccc2)CN1C(=O)[C@H](NC(=O)[C@H](NC(=O)c1cnccn1)C(C)C)C(C)C)C(=O)C(F)(F)C(F)(F)F (stereo partly drawn)	17.5	–	–	–
CCCC(NC(=O)[C@@H]1C[C@@H](OC(=O)N2CCc3ccccc3C2)CN1C(=O)[C@H](NC(=O)[C@H](NC(=O)c1cnccn1)C(C)C)C(C)C)C(=O)C(=O)N[C@@H](C)C(=O)c1cccc2ccccc12 (stereo partly drawn)	–	–	–	IC50 [1]: 0.75 µM; Ki [2]: < 0.2 µM
CCC(NC(=O)[C@@H]1C[C@@H](OCc2ccccc2)CN1C(=O)[C@H](NC(=O)[C@H](NC(=O)c1cnccn1)C(C)C)C(C)C)C(=O)C(F)(F)F (stereo partly drawn)	> 50	–	–	–
CCCC(NC(=O)[C@@H]1C[C@@H](OC(=O)N2CCc3ccccc3C2)CN1C(=O)[C@H](NC(=O)[C@H](NC(=O)c1cnccn1)C(C)C)C(C)C)C(=O)C(=O)N[C@@H](C)c1ccccc1 (stereo partly drawn)	–	> 0.31	> 16	IC50 [1]: 0.22 µM; Ki [4]: < 0.2 µM
CCCC(NC(=O)[C@@H]1C[C@@H](OC(=O)N2CCc3ccccc3C2)CN1C(=O)[C@H](NC(=O)[C@H](NC(=O)c1cnccn1)C(C)C)C(C)C)C(=O)C(=O)N(C)CC(=O)O (stereo partly drawn)	5.23	–	–	–
CCCC(NC(=O)[C@@H]1C[C@@H](OC(=O)N2CCc3ccccc3C2)CN1C(=O)[C@H](NC(=O)[C@H](NC(=O)c1cnccn1)C(C)C)C(C)C)C(=O)C(=O)NCC(=O)O (stereo partly drawn)	–	> 10	> 100	Ki [6]: < 0.2 µM; IC50 [7]: 0.037 µM
CC[C@H](NC(=O)[C@@H]1C[C@@H](OCc2ccccc2)CN1C(=O)[C@@H](NC(=O)[C@@H](NC(=O)c1cnccn1)C(C)C)C(C)C)C(=O)C(=O)NCc1ccccc1	4	–	–	–
CC[C@@H](C=O)NC(=O)[C@@H]1CC(OC(=O)C2CCc3ccccc3C2)CN1C(=O)[C@@H](NC(=O)[C@@H](NC(=O)c1cnccn1)C(C)C)C(C)C (stereo partly drawn)	–	–	–	Ki [8]: 0.89 µM
CCCC(NC(=O)[C@@H]1C[C@@H](OC(=O)N2CCc3ccccc3C2)CN1C(=O)[C@H](NC(=O)[C@H](NC(=O)c1cnccn1)C(C)C)C(C)C)C(=O)C(=O)NC(CO)C(=O)O (stereo partly drawn)	0.54	–	–	–
CCCC(NC(=O)[C@@H]1C[C@@H](OC(=O)N2CCc3ccccc3C2)CN1C(=O)[C@H](NC(=O)[C@H](NC(=O)c1cnccn1)C(C)C)C(C)C)C(=O)C(=O)NC1CC1 (stereo partly drawn)	–	> 2.3	> 100	IC50 [1]: 0.42 µM; Ki [6]: < 0.22 µM
CC[C@H](NC(=O)[C@@H]1C[C@@H](OCc2ccccc2)CN1C(=O)[C@@H](NC(=O)[C@@H](NC(=O)c1cnccn1)C(C)C)C(C)C)C(=O)C(=O)N1CCCC1	32	–	–	–
CC[C@H](NC(=O)[C@@H]1C[C@@H](OCc2ccccc2)CN1C(=O)[C@@H](NC(=O)[C@@H](NC(=O)c1cnccn1)C(C)C)C(C)C)C(=O)C(=O)c1ccccc1	10	–	–	–
CCCC(NC(=O)[C@@H]1C[C@@H](OC(=O)N2CCc3ccccc3C2)CN1C(=O)[C@H](NC(=O)[C@H](NC(=O)c1cnccn1)C(C)C)C(C)C)C(=O)C(=O)NC1CCC1 (stereo partly drawn)	0.8	> 10.2	> 100	–
CC[C@H](NC(=O)[C@@H]1C[C@@H](OCc2ccccc2)CN1C(=O)[C@@H](NC(=O)[C@@H](NC(=O)c1cnccn1)C(C)C)C(C)C)C(=O)C(=O)C(C)C	2.7	–	–	–
CCCC(NC(=O)[C@@H]1C[C@@H](OC(=O)N2CCc3ccccc3C2)CN1C(=O)[C@H](NC(=O)[C@H](NC(=O)c1cnccn1)C(C)C)C(C)C)C(=O)C(=O)NCC#N (stereo partly drawn)	1.12	–	–	–
CC[C@H](NC(=O)[C@@H]1C[C@@H](OCc2ccccc2)CN1C(=O)[C@@H](NC(=O)[C@@H](NC(=O)c1cnccn1)C(C)C)C(C)C)C(=O)C(C)=O	50	–	–	–
CC[C@H](NC(=O)[C@@H]1C[C@@H](OCc2ccccc2)CN1C(=O)[C@@H](NC(=O)[C@@H](NC(=O)c1cnccn1)C(C)C)C(C)C)C(=O)C(=O)N[C@H](C)c1ccccc1	17	–	–	–
CCC(NC(=O)[C@@H]1C[C@@H](OCc2ccccc2)CN1C(=O)[C@H](NC(=O)[C@H](NC(=O)c1cnccn1)C(C)C)C(C)C)C(=O)CCl (stereo partly drawn)	> 50	–	–	–
CCCC(NC(=O)[C@@H]1C[C@@H](OC(=O)N2CCc3ccccc3C2)CN1C(=O)[C@H](NC(=O)[C@H](NC(=O)c1cnccn1)C(C)C)C(C)C)C(=O)C(=O)NCc1ccco1 (stereo partly drawn)	4.72	–	–	–

SMILES	Ki (NS3) [µM]	IC50 (Huh-7 [3]) [µM]	CC50 (Huh-7 [5]) [µM]	also measured
CCCC(NC(=O)[C@@H]1C[C@@H](OC(=O)N2CCc3ccccc3C2)CN1C(=O)[C@H](NC(=O)[C@H](NC(=O)c1cnccn1)C(C)C)C(C)C)C(=O)C(=O)NC(C)C (stereo partly drawn)	0.52	> 10	> 100	–
CCCC(NC(=O)[C@@H]1C[C@@H](OC(=O)N2CCc3ccccc3C2)CN1C(=O)[C@H](NC(=O)[C@H](NC(=O)c1cnccn1)C(C)C)C(C)C)C(=O)C(=O)NCCc1ccccc1 (stereo partly drawn)	0.21	> 10	> 100	IC50 [1]: 0.52 µM
CCCC(NC(=O)[C@@H]1C[C@@H](OC(=O)N2CCc3ccccc3C2)CN1C(=O)[C@H](NC(=O)[C@H](NC(=O)c1cnccn1)C(C)C)C(C)C)C(=O)C(=O)NCc1ccccc1 (stereo partly drawn)	–	> 3.2	> 30	IC50 [1]: 0.22 µM; Ki [6]: < 0.2 µM
CCCC(NC(=O)[C@@H]1C[C@@H](OC(=O)N2CCc3ccccc3C2)CN1C(=O)[C@H](NC(=O)[C@H](NC(=O)c1cnccn1)C(C)C)C(C)C)C(=O)C(=O)NCC(=N)N (stereo partly drawn)	5.76	–	–	–
CC[C@H](NC(=O)[C@@H]1C[C@@H](OCc2ccccc2)CN1C(=O)[C@@H](NC(=O)[C@@H](NC(=O)c1cnccn1)C(C)C)C(C)C)C(=O)c1nnc(-c2ccccc2)o1	35	–	–	–
CC[C@H](NC(=O)[C@@H]1C[C@@H](OCc2ccccc2)CN1C(=O)[C@@H](NC(=O)[C@@H](NC(=O)c1cnccn1)C(C)C)C(C)C)C(=O)C(=O)N[C@@H](C)c1ccccc1 [listing 1 of 2 here]	0.92	> 4.8	–	–
CC[C@H](NC(=O)[C@@H]1C[C@@H](OCc2ccccc2)CN1C(=O)[C@@H](NC(=O)[C@@H](NC(=O)c1cnccn1)C(C)C)C(C)C)C(=O)C(=O)N[C@@H](C)c1ccccc1 [listing 2 of 2 here]	–	–	> 100	–
CCCC(NC(=O)[C@@H]1C[C@@H](OC(=O)N2CCc3ccccc3C2)CN1C(=O)[C@H](NC(=O)[C@H](NC(=O)c1cnccn1)C(C)C)C(C)C)C(=O)C(=O)NC(C)C(=O)O (stereo partly drawn)	–	–	–	IC50 [1]: 0.13 µM; Ki [2]: 0.2 µM
CCCC(NC(=O)[C@@H]1C[C@@H](OC(=O)N2CCc3ccccc3C2)CN1C(=O)[C@H](NC(=O)[C@H](NC(=O)c1cnccn1)C(C)C)C(C)C)C(=O)C(=O)NC(C)(C)C (stereo partly drawn)	6.9	–	–	–
CCCC(NC(=O)[C@@H]1C[C@@H](OC(=O)N2CCc3ccccc3C2)CN1C(=O)[C@H](NC(=O)[C@H](NC(=O)c1cnccn1)C(C)C)C(C)C)C(=O)C(=O)N(CC(=O)O)c1ccccc1 (stereo partly drawn)	1.63	–	–	–
CCCC(NC(=O)[C@@H]1C[C@@H](OC(=O)N2CCc3ccccc3C2)CN1C(=O)[C@H](NC(=O)[C@H](NC(=O)c1cnccn1)C(C)C)C(C)C)C(=O)C(=O)NCc1nnn[nH]1 (stereo partly drawn)	0.29	> 10	> 100	–
CC[C@H](NC(=O)[C@@H]1C[C@@H](OCc2ccccc2)CN1C(=O)[C@@H](NC(=O)[C@@H](NC(=O)c1cnccn1)C(C)C)C(C)C)C(=O)O (Pyrazinecarbonyl-VV[Hyp](Bn)[Abu]-OH)	> 50	–	–	–
CC[C@@H](C=O)NC(=O)[C@@H]1C[C@@H](OCc2ccccc2)CN1C(=O)[C@@H](NC(=O)[C@@H](NC(=O)c1cnccn1)C(C)C)C(C)C (Pyrazinecarbonyl-VV[Hyp](Bn)[Abu]-aldehyde)	16	–	–	–
CCOC(=O)C(F)(F)C(=O)C(CC)NC(=O)C1CC(OCc2ccccc2)CN1C(=O)[C@H](NC(=O)[C@H](NC(=O)c1cnccn1)C(C)C)C(C)C (single isomer, unassigned)	> 50	–	–	–
CCCC(NC(=O)[C@@H]1CC(OC(=O)N2CCc3ccccc3C2)CN1C(=O)[C@H](NC(=O)[C@H](NC(=O)c1cnccn1)C(C)C)C(C)C)C(=O)C(=O)c1ccccc1 (single isomer, unassigned)	–	> 10	> 100	IC50 [1]: 0.026 µM; Ki [9]: < 0.2 µM
CCCC(NC(=O)[C@@H]1CC(OC(=O)N2CCc3ccccc3C2)CN1C(=O)[C@H](NC(=O)[C@H](NC(=O)c1cnccn1)C(C)C)C(C)C)C(=O)C(=O)N1C[C@@H]1c1ccccc1 (single isomer, unassigned)	1.6	–	–	–
CCCC(NC(=O)[C@@H]1CC(OC(=O)N2CCc3ccccc3C2)CN1C(=O)[C@H](NC(=O)[C@H](NC(=O)c1cnccn1)C(C)C)C(C)C)C(=O)C(=O)Cc1ccccc1 (single isomer, unassigned)	0.43	> 10	> 100	–
CCCC(NC(=O)[C@@H]1CC(OC(=O)N2CCc3ccccc3C2)CN1C(=O)[C@H](NC(=O)[C@H](NC(=O)c1cnccn1)C(C)C)C(C)C)C(=O)C(=O)N1CCC1 (single isomer, unassigned)	0.97	> 10.3	> 100	–
